Assay results: EP0238178B1, “Novel derivatives of erythromycylamine” (ELI LILLY AND COMPANY, priority 1986, dated 1987)
≈ marks a conversion by molar mass, not a printed value. Like-named read-outs stand apart in the source and are kept apart here.

How the values were obtained:
[1] = tested on: Staphylococcus aureus X1.1; assay: MIC, standard agar-dilution assay; assay type: cell-based
[2] = tested on: Escherichia coli EC14; assay: MIC, standard agar-dilution assay; assay type: cell-based
[3] = tested on: Streptococcus sp. group D X66; assay: MIC, standard agar-dilution assay; assay type: cell-based
[4] = tested on: Streptococcus sp. group D 2041; assay: MIC, standard agar-dilution assay; assay type: cell-based
[5] = tested on: Haemophilus influenzae C.L.; assay: MIC, standard agar-dilution assay; assay type: cell-based; conditions: Ampicillin-sensitive strain
[6] = tested on: Klebsiella pneumoniae X68; assay: MIC, standard agar-dilution assay; assay type: cell-based
[7] = tested on: Staphylococcus aureus X400; assay: MIC, standard agar-dilution assay; assay type: cell-based
From the text: (§1) In addition to excellent in vitro activity against erythromycin-sensitive bacteria, several members of this new series have shown in vitro activity against erythromycin-resistant strains. These include strains which are inducibly-resistant to erythromycin (S.. aureus V41 and X400 and S. epidermidis EPI1) and even strains which are constitutively-resistant (S. epidermidis 270).

[8] = tested on: Staphylococcus aureus V41; assay: MIC, standard agar-dilution assay; assay type: cell-based
From the text: as §1

[9] = tested on: Streptococcus pneumoniae Park I; assay: MIC, standard agar-dilution assay; assay type: cell-based
[10] = tested on: Staphylococcus epidermidis 222; assay: MIC, standard agar-dilution assay; assay type: cell-based
[11] = tested on: Streptococcus pyogenes C203; assay: MIC, standard agar-dilution assay; assay type: cell-based
[12] = tested on: Staphylococcus aureus S13E; assay: MIC, standard agar-dilution assay; assay type: cell-based
[13] = tested on: Haemophilus influenzae 76; assay: MIC, standard agar-dilution assay; assay type: cell-based; conditions: Haemophilus influenzae 76, Ampicillin-resistant strain
[14] = tested on: Streptococcus pyogenes; assay: Experimental bacterial infection in mice, ED50; assay type: in vivo; conditions: Streptococcus pyogenes, po, two doses, dose protecting 50% of animals, read-out: Oral ED50
Experimental: (§2) The new derivatives of this invention have also shown in vivo antimicrobial activity against experimental bacterial infections. When two doses of test compound were administered to mice in experimental infections, the activity observed was measured as an EDso value [effective dose in mg/kg to protect 50% of the test animals: see Warren Wick, et al., J. Bacteriol. 81, 233-235 (1961)].

[15] = tested on: Staphylococcus aureus; assay: Experimental bacterial infection in mice, ED50; assay type: in vivo; conditions: Staphylococcus aureus, two doses, dose protecting 50% of animals
Experimental: as §2

[16] = tested on: Streptococcus pneumoniae; assay: Experimental bacterial infection in mice, ED50; assay type: in vivo; conditions: Streptococcus pneumoniae, po, two doses, dose protecting 50% of animals, read-out: Oral ED50
Experimental: as §2

[17] = tested on: Staphylococcus epidermidis EPI1; assay: MIC, standard agar-dilution assay; assay type: cell-based
From the text: as §1

[18] = Staphylococcus aureus X400, Methicillin-resistant strain, inducibly-resistant to erythromycin, read-out: MIC
[19] = Staphylococcus aureus V41, Penicillin-resistant strain, inducibly-resistant to erythromycin, read-out: MIC
[20] = Streptococcus sp. group D X66, read-out: MIC
[21] = sc, subcutaneous, read-out: Subcutaneous ED50

Compound | MIC [12] [µg/mL] | MIC ([1]; read-out: MIC) [µg/mL] | MIC ([2]; read-out: MIC) [µg/mL] | MIC ([4]; read-out: MIC) [µg/mL] | MIC ([5]; read-out: MIC) [µg/mL] | MIC ([6]; read-out: MIC) [µg/mL] | MIC [7, 18] [µg/mL] | MIC [8, 19] [µg/mL] | ED50 [14] [mg/kg] | ED50 ([15]; po, read-out: Oral ED50) [mg/kg] | ED50 [16] [mg/kg] | MIC ([10]; read-out: MIC) [µg/mL] | MIC ([11]; read-out: MIC) [µg/mL] | MIC ([13]; read-out: MIC) [µg/mL] | MIC [3, 20] [µg/mL] | MIC ([9]; read-out: MIC) [µg/mL] | MIC [17] [µg/mL] | also measured
9-Deoxo-9-[(5-dimethylamino-2-pentyl)amino]-9,11-1N,O)-cyclic. Methylene Adduct of Erythromycin [Compound 63] | 8 |  |  |  |  |  |  |  |  |  |  |  |  |  |  |  |  | MIC [1]: 8 µg/mL; MIC [2]: 32 µg/mL; MIC ([3]; Streptococcus sp. group D X66): 2 µg/mL; MIC [4]: 32 µg/mL; MIC [5]: 8 µg/mL; MIC [6]: 128 µg/mL; MIC ([7]; Staphylococcus aureus X400, Methicillin-resistant strain, inducibly-resistant to erythromycin): – (– = >128); MIC ([8]; Staphylococcus aureus V41, Penicillin-resistant strain, inducibly-resistant to erythromycin): – (– = >128); MIC [9]: 0.5 µg/mL; MIC [10]: 8 µg/mL; MIC [11]: 0.5 µg/mL; MIC [13]: 8 µg/mL
CC[C@H]1OC(=O)[C@H](C)[C@@H](O[C@H]2C[C@@](C)(OC)[C@@H](O)[C@H](C)O2)[C@H](C)[C@@H](O[C@@H]2O[C@H](C)C[C@H](N(C)C)[C@H]2O)[C@](C)(O)C[C@@H](C)[C@H](NC)[C@H](C)[C@@H](O)[C@]1(C)O [Compound 1, 9-Deoxo-9-(methylamino)erythromycin] | 0.125 (≈ 0.167 µM) | 1 (≈ 1.34 µM) | 32 (≈ 42.7 µM) | 1 (≈ 1.34 µM) | 0.5 (≈ 0.668 µM) | 64 (≈ 85.4 µM) | 64 (≈ 85.4 µM) | 64 (≈ 85.4 µM) | 21 | 43.8 | 35.4 | 0.25 (≈ 0.334 µM) | 0.06 (≈ 0.0801 µM) | 1 (≈ 1.34 µM) |  |  |  | MIC ([3]; Streptococcus): 0.125 µg/mL (≈ 0.167 µM)
CCC(CC)CN[C@@H]1[C@H](C)[C@@H](O)[C@](C)(O)[C@@H](CC)OC(=O)[C@H](C)[C@@H](O[C@H]2C[C@@](C)(OC)[C@@H](O)[C@H](C)O2)[C@H](C)[C@@H](O[C@@H]2O[C@H](C)C[C@H](N(C)C)[C@H]2O)[C@](C)(O)C[C@H]1C [Compound 12, 9-Deoxo-9-[(2-ethylbutyl)amino]erythromycin] | 0.25 (≈ 0.305 µM) | 0.5 (≈ 0.61 µM) | 64 (≈ 78.1 µM) | 8 (≈ 9.77 µM) | 2 (≈ 2.44 µM) | 32 (≈ 39.1 µM) | 16 (≈ 19.5 µM) | 16 (≈ 19.5 µM) | 9.4 | 22.3 | 16.6 | 0.5 (≈ 0.61 µM) | 0.015 (≈ 0.0183 µM) | 2 (≈ 2.44 µM) | 0.125 (≈ 0.153 µM) | 0.015 (≈ 0.0183 µM) |  | 
CC[C@H]1OC(=O)[C@H](C)[C@@H](O[C@H]2C[C@@](C)(OC)[C@@H](O)[C@H](C)O2)[C@H](C)[C@@H](O[C@@H]2O[C@H](C)C[C@H](N(C)C)[C@H]2O)[C@](C)(O)C[C@@H](C)[C@H](NCCC(C)CCCC(C)(C)OC)[C@H](C)[C@@H](O)[C@]1(C)O (stereo partly drawn) [Compound 24, 9-Deoxo-9-[(7-methoxy-3,7-dimethyloctyl)amino]erythromycin] | 0.25 (≈ 0.276 µM) | 0.5 (≈ 0.552 µM) | 128 (≈ 141 µM) | 2 (≈ 2.21 µM) | 1 (≈ 1.1 µM) |  | 64 (≈ 70.7 µM) | 64 (≈ 70.7 µM) | 25 | > 45.6 | 23.6 | 0.25 (≈ 0.276 µM) | 0.015 (≈ 0.0166 µM) | 2 (≈ 2.21 µM) | 0.03 (≈ 0.0331 µM) |  |  | 
CC[C@H]1OC(=O)[C@H](C)[C@@H](O[C@H]2C[C@@](C)(OC)[C@@H](O)[C@H](C)O2)[C@H](C)[C@@H](O[C@@H]2O[C@H](C)C[C@H](N(C)C)[C@H]2O)[C@](C)(O)C[C@@H](C)[C@H]2[C@H](C)[C@@H](OCN2C(C)C)[C@]1(C)O [Compound 58, 9-Deoxo-9-[isopropylamino]-9,11-(N,O)-cyclic Methylene Adduct of Erythromycin] | 1 (≈ 1.27 µM) | 1 (≈ 1.27 µM) | 32 (≈ 40.6 µM) | 4 (≈ 5.07 µM) | 4 (≈ 5.07 µM) | 64 (≈ 81.1 µM) |  |  | 6.7 |  | 5.7 | 0.5 (≈ 0.634 µM) | 0.125 (≈ 0.158 µM) | 4 (≈ 5.07 µM) | 0.25 (≈ 0.317 µM) | 0.06 (≈ 0.076 µM) | 128 (≈ 162 µM) | MIC ([7]; Staphylococcus aureus, X400): > 128 µg/mL; MIC ([8]; Staphylococcus aureus, V41): > 128 µg/mL; ED50 [15, 21]: > 10 mg/kg
CCCN1CO[C@@H]2[C@@H](C)[C@@H]1[C@H](C)C[C@@](C)(O)[C@H](O[C@@H]1O[C@H](C)C[C@H](N(C)C)[C@H]1O)[C@@H](C)[C@H](O[C@H]1C[C@@](C)(OC)[C@@H](O)[C@H](C)O1)[C@@H](C)C(=O)O[C@H](CC)[C@@]2(C)O [Compound 59] | 0.125 (≈ 0.158 µM) | 0.25 (≈ 0.317 µM) | 32 (≈ 40.6 µM) | 1 (≈ 1.27 µM) | 1 (≈ 1.27 µM) | 128 (≈ 162 µM) | 8 (≈ 10.1 µM) | 8 (≈ 10.1 µM) | 4.8 | 7.2 | 5 |  | < 0.008 | 2 (≈ 2.53 µM) |  | < 0.008 | > 128 | MIC ([3]; Streptococcus): 0.125 µg/mL (≈ 0.158 µM); MIC [10]: 0.125 µg/mL (≈ 0.158 µM)
CC[C@H]1OC(=O)[C@H](C)[C@@H](O[C@H]2C[C@@](C)(OC)[C@@H](O)[C@H](C)O2)[C@H](C)[C@@H](O[C@@H]2O[C@H](C)C[C@H](N(C)C)[C@H]2O)[C@](C)(O)C[C@@H](C)[C@H]2[C@H](C)[C@@H](OCN2C2CCCC2)[C@]1(C)O [Compound 60] | 2 (≈ 2.45 µM) | 1 (≈ 1.23 µM) | 64 (≈ 78.5 µM) | 8 (≈ 9.81 µM) | 4 (≈ 4.91 µM) | 64 (≈ 78.5 µM) | > 128 | > 128 | 10.2 | > 50 | 9 | 1 (≈ 1.23 µM) | 0.125 (≈ 0.153 µM) | 4 (≈ 4.91 µM) | 0.5 (≈ 0.613 µM) | 0.06 (≈ 0.0736 µM) | > 128 | ED50 [15, 21]: 5 mg/kg
CC[C@H]1OC(=O)[C@H](C)[C@@H](O[C@H]2C[C@@](C)(OC)[C@@H](O)[C@H](C)O2)[C@H](C)[C@@H](O[C@@H]2O[C@H](C)C[C@H](N(C)C)[C@H]2O)[C@](C)(O)C[C@@H](C)[C@H]2[C@H](C)[C@@H](OCN2Cc2ccccc2)[C@]1(C)O [Compound 62, 9-Deoxo-9-[(benzyl)amino]-9,11-(N.O)-cyclic Methylene Adduct of Erythromycin] | 1 (≈ 1.19 µM) | 1 (≈ 1.19 µM) | > 128 | 4 (≈ 4.78 µM) | 4 (≈ 4.78 µM) | > 128 | 128 (≈ 153 µM) | 64 (≈ 76.5 µM) | 15.6 | > 50 | 15.2 | 0.5 (≈ 0.597 µM) | 0.125 (≈ 0.149 µM) | 4 (≈ 4.78 µM) | 0.5 (≈ 0.597 µM) | 0.06 (≈ 0.0717 µM) | 64 (≈ 76.5 µM) | 
CC[C@H]1OC(=O)[C@H](C)[C@@H](O[C@H]2C[C@@](C)(OC)[C@@H](O)[C@H](C)O2)[C@H](C)[C@@H](O[C@@H]2O[C@H](C)C[C@H](N(C)C)[C@H]2O)[C@](C)(O)C[C@@H](C)[C@H](N(C)C)[C@H](C)[C@@H](O)[C@]1(C)O [Compound 69, 9-Deoxo-9-(dimethylamino)erythromycin] | 2 (≈ 2.62 µM) | 4 (≈ 5.24 µM) | 128 (≈ 168 µM) | 4 (≈ 5.24 µM) | 2 (≈ 2.62 µM) | > 128 | 64 (≈ 83.9 µM) | 64 (≈ 83.9 µM) | 21.9 | > 43.8 | 43.5 | 2 (≈ 2.62 µM) | 0.25 (≈ 0.328 µM) | 8 (≈ 10.5 µM) | 0.5 (≈ 0.655 µM) |  | > 128 | 
CC[C@H]1OC(=O)[C@H](C)[C@@H](O[C@H]2C[C@@](C)(OC)[C@@H](O)[C@H](C)O2)[C@H](C)[C@@H](O[C@@H]2O[C@H](C)C[C@H](N(C)C)[C@H]2O)[C@](C)(O)C[C@@H](C)[C@H](N(C)C(C)C)[C@H](C)[C@@H](O)[C@]1(C)O [Compound 70, 9-Deoxo-9-[(N-methyl-N-isopropyl)amino]erythromycin] | 8 (≈ 10.1 µM) | 8 (≈ 10.1 µM) | > 128 | 32 (≈ 40.5 µM) | 32 (≈ 40.5 µM) | > 128 | > 128 | > 128 |  |  |  | 8 (≈ 10.1 µM) | 0.5 (≈ 0.632 µM) | 32 (≈ 40.5 µM) | 2 (≈ 2.53 µM) | 0.5 (≈ 0.632 µM) | > 128 | 
CC[C@H]1OC(=O)[C@H](C)[C@@H](O[C@H]2C[C@@](C)(OC)[C@@H](O)[C@H](C)O2)[C@H](C)[C@@H](O[C@@H]2O[C@H](C)C[C@H](N(C)C)[C@H]2O)[C@](C)(O)C[C@@H](C)[C@H](N(C)C2CCCCC2)[C@H](C)[C@@H](O)[C@]1(C)O [Compound 71, 9-Deoxo-9-[(N-cyclohexyl-N-methyl)amino]erythromycin] | 16 (≈ 19.3 µM) | 16 (≈ 19.3 µM) | > 128 | 128 (≈ 154 µM) | 32 (≈ 38.5 µM) | > 128 | > 128 | > 128 | > 50 | > 50 | > 50 | 8 (≈ 9.63 µM) | 1 (≈ 1.2 µM) | 32 (≈ 38.5 µM) | 8 (≈ 9.63 µM) | 0.125 (≈ 0.15 µM) | > 128 | 
